Values quoted from earlier work, collected in patent US20140234405A1 (priority 2013, published 2014).
No end group written: not given here.

Legend:
gastrin = details: 90 mg/day for 6 years or greater; cited from earlier work
type 2 diabetes = details: 12 weeks, cited from earlier work
beta cell mass = details: after infusion of gastrin in rats; cited from earlier work
[1] = system: human pancreatic ductal tissue; details: in vitro, without epidermal growth factor; cited from earlier work

In the case of `Cc1c(OCC(F)(F)F)ccnc1C[S+]([O-])c1nc2ccccc2[nH]1` (stereo not shown) [Lansoprazole, 1H-Benzimidazole,2-[[[3-methyl-4-(2,2,2-trifluoroethoxy)-2-pyridinyl]methyl]sulfinyl]-2-[[[3-Methyl-4-(2,2,2-trifluoroethoxy)-2-pyridyl]-methyl]sulfinyl]benzimidazole], the “gastrin levels relative to normal” value (gastrin) is given as about 7 fold and the safety profile (gastrin) is given as “sustained safety profile”.
In the case of `COc1ccc2nc([S@@+]([O-])Cc3ncc(C)c(OC)c3C)[nH]c2c1` [esomeprazole], the “insulin secretion, glycaemic control, cardiovascular disease biomarkers” value (type 2 diabetes; patients with type 2 diabetes) is given as “did not improve”, the “change in insulin AUC” value (type 2 diabetes; control group had 16.3% reduction) is given as “no decline in insulin AUC” and the “increase in area under the curve (AUC) of gastrin” value (type 2 diabetes; 20 type 2 diabetes patients, 40 mg) is given as 9 fold.
For “gastrin: gastrointestinal hormone demonstrated to result in new beta cell formation (QGPWLEEEEEAYGWMDF; ends and bridges not checked; UniProt P01350 76-92, looked up)”, the beta cell mass (beta cell mass) is listed as “doubling beta cell mass” and the “beta cell neogenesis from human pancreatic ductal tissue” value [1] is listed as “induce beta cell neogenesis”.
